These results are taken from US20060058339A1, “Compounds modulating c-kit activity and uses therefor” (priority 2004, published 2006).

In one experiment the target is T1, c-kit kinase domain (Homo sapiens, UniProt P10721).
T1 construct: C-Kit kinase domain (starting amino acid M551, ending amino acid K949); made in house; host or cells: E. coli
The experiment is described as follows: c-kit kinase activity biochemical assay (AlphaScreen PY20 or 33P radiolabeled ATP detection). To be noted: as measured by at least one of AlphaScreen or 33P ATP assay; ATP 10 μM in the AlphaScreen assay; read-out: IC50, inhibition of c-kit kinase activity. The source says: Compounds 1-1, 1-2, 1-3, and 1-4 of Table 1 were similarly assayed using a ^33P radiolabeled ATP for detection (Upstate USA, Charlottesville, Va.).
In general terms: Bead proximity is the source of the signal in Alpha formats.

Experiment [1] relates to M-07e cell line stimulated by SCF. The experiment is described as follows: M-07e SCF-stimulated cell proliferation (CellTiter-Glo). As to conditions: 72 h, 100 ng/ml SCF, three days, luminescence (ATP content), read-out: IC50, growth of SCF stimulated M-07e cells. Format: cell-based. The source says:
As one example, M-07e cell line (DSMZ catalog #ACC 104) is stimulated by SCF, which binds and activates c-kit tyrosine kinase receptor.
Background: Cellular ATP, detected with luciferase, serves as a proxy for viable cell number.

For experiment [2], the system named is cells with activating c-kit mutations in the catalytic region. As to conditions: Ma et al., 2002, Blood 99:1741-1744; cited from earlier work.

T1 sequence (P10721 552-948 limits assumed): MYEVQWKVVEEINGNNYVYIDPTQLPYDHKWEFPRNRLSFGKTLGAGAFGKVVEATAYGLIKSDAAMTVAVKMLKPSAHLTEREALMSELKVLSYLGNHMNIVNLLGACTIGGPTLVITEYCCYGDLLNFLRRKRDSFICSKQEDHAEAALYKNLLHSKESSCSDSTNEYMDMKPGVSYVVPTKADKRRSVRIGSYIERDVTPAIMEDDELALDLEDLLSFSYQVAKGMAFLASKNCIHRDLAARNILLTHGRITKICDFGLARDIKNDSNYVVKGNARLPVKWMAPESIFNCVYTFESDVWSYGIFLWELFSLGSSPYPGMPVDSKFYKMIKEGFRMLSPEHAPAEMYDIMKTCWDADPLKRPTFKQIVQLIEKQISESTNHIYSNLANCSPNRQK

For `Clc1ccc(CNc2ccc(Cc3c[nH]c4ncccc34)cn2)cc1` [Compound 1-2, (4-chloro-benzyl)-[5-(1H-pyrrolo[2,3-b]pyridin-3-ylmethyl)-pyridin-2-yl]-amine], the IC50 (at c-kit kinase domain; in experiment [1]) was less than 1000 nM throughout.

As to `Fc1ccc(CNc2ccc(Cc3c[nH]c4ncccc34)cn2)cc1` [Compound 1-3, (4-fluoro-benzyl)-[5-(1H-pyrrolo[2,3-b]pyridin-3-ylmethyl)-pyridin-2-yl]-amine], at c-kit kinase domain, the IC50 is less than 1000 nM.

As for `Cc1ccc(CNc2ccc(Cc3c[nH]c4ncccc34)cn2)cc1` [Compound 1-4, (4-methyl-benzyl)-[5-(1H-pyrrolo[2,3-b]pyridin-3-ylmethyl)-pyridin-2-yl]-amine], the 50% inhibitory concentration (IC50) on c-kit kinase domain is less than 1000 nM.

As to `Cc1ccc(NC(=O)c2ccc(CN3CCN(C)CC3)cc2)cc1Nc1nccc(-c2cccnc2)n1` [ST1571], in experiment [2], the “inhibition of cells with c-kit mutations in the catalytic region” value is reported as “did not inhibit”.

The IC50 is the concentration that gives 50% inhibition.
